Test results as given in PubChem BioAssay (NCI).
Several values for one entry are separate records, joined by “and”; a condition that tells them apart may be missing. Equal values may be shown once.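 Assay format: 96-well plates, 48-hour exposure. Here, GI50 denotes the concentration required for 50% inhibition of growth. TGI denotes the concentration required for complete inhibition of growth.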

Assays:
Test in all cases: NCI anticancer screen, dose series, 48 h
[1] = tested on: SF-295 CNS
[2] = tested on: TK-10 renal
[3] = tested on: HOP-62 NSCLC
[4] = tested on: NCI-H460 lung
[5] = tested on: A549 NSCLC
[6] = tested on: SF-539 CNS
[7] = tested on: SNB-75 CNS
[8] = tested on: HCT-116 colon
[9] = tested on: OVCAR-4 ovarian
[10] = tested on: K-562 leukemia

| SMILES | GI50 [1] | TGI [1] | GI50 [2] | TGI [2] | GI50 [3] | TGI [3] | GI50 [4] | TGI [4] | GI50 [5] | TGI [5] | GI50 [6] | TGI [6] | GI50 [7] | TGI [7] | GI50 [8] | TGI [8] | GI50 [9] | TGI [9] | GI50 [10] | TGI [10] |
| --- | --- | --- | --- | --- | --- | --- | --- | --- | --- | --- | --- | --- | --- | --- | --- | --- | --- | --- | --- | --- |
| COc1ccc(C#Cc2ccc(=O)oc2-c2cc(OC)c(OC)c(OC)c2)cc1O | 4.49 µM | > 45.2 µM | 21.8 µM | > 100 µM | 5.12 µM | > 64.6 µM | 0.973 µM | > 100 µM | 7.08 µM | > 100 µM | 6.27 µM | 40.4 µM | 5.52 µM | 27.8 µM | 3.28 µM | > 100 µM | 20.3 µM | > 100 µM | 0.505 µM | > 100 µM |
| O=C1C(=O)N(c2ccc(Cl)cc2)C(=O)C(=O)C1c1nc2ccccc2o1 | – | > 100 µM | – | > 100 µM | – | > 100 µM | – | > 100 µM | – | > 100 µM | – | > 100 µM | – | > 100 µM | – | > 100 µM | – | > 100 µM | – | > 100 µM |
| O=C(O)C[C@@H](Cl)[C@H](NC(=O)OCc1ccccc1)C(=O)O | – | > 100 µM | – | > 100 µM | – | > 100 µM | – | > 100 µM | – | > 100 µM | – | > 100 µM | – | > 100 µM | – | > 100 µM | – | > 100 µM | – | > 100 µM |
| O=C1/C(=C/c2ccccc2)CN(C(=O)C(Cl)Cl)C/C1=C\c1ccccc1 | 0.597 µM | 1.86 µM | 1.79 µM | 3.22 µM | 1.39 µM | 2.84 µM | 1.3 µM | 3.01 µM | 1.7 µM | 3.92 µM | 0.884 µM | 2.25 µM | 1.09 µM | 2.31 µM | 0.209 µM | 0.527 µM | 1.12 µM | 2.44 µM | 0.134 µM | – |
| CC1(C)S[C@@H]2[C@H](N3C(=O)c4ccccc4C3=O)CN2[C@H]1NC(=O)N[C@@H]1N2C[C@@H](N3C(=O)c4ccccc4C3=O)[C@H]2SC1(C)C | – | > 100 µM | – | > 100 µM | – | > 100 µM | – | > 100 µM | – | > 100 µM | – | > 100 µM | – | > 100 µM | – | > 100 µM | – | > 100 µM | – | > 100 µM |
| NCCc1ccc(S(=O)(=O)F)cc1 | 64.5 µM | > 100 µM | 59.3 µM | > 100 µM | 57.8 µM | > 100 µM | 62.3 µM | > 100 µM | > 100 µM | > 100 µM | 14.8 µM | 70 µM | > 100 µM | > 100 µM | 53.7 µM | > 100 µM | > 100 µM | > 100 µM | 80.7 µM | > 100 µM |
| CCC(=O)N1C(=O)OCC1C(C)C (configuration not stated) | – | > 100 µM | – | > 100 µM | – | > 100 µM | – | > 100 µM | – | > 100 µM | – | > 100 µM | – | > 100 µM | – | > 100 µM | – | > 100 µM | – | > 100 µM |
| C=C(CN1CCN(c2ccc(C(F)(F)F)cc2)CC1)c1ccc(C(=O)Nc2ccccc2N)cc1 | 10.8 µM | > 100 µM | 21 µM | > 82.4 µM | 8.38 µM | > 45 µM | 3.44 µM | > 100 µM | 6.43 µM | 45.5 µM | 8.15 µM | > 100 µM | 12.4 µM | 51.8 µM | 11.4 µM | > 100 µM | 5.68 µM | > 100 µM | 0.302 µM | > 36.5 µM |
| CC/C=C\C[C@H](F)C/C=C1/C(=O)C=C[C@@H]1C/C=C\CCCC(=O)OC | 2.24 µM | 8.3 µM | 7.09 µM | 16.2 µM | 1.45 µM | 3.45 µM | 1.44 µM | 4.11 µM | 1.99 µM | 10.5 µM | 4.26 µM | 11.2 µM | 5.64 µM | 11.7 µM | 0.88 µM | 1.79 µM | 3.35 µM | 10.1 µM | 1.49 µM | 6.19 µM |
| C=C1CC2(CC(c3ccccc3Cl)OC(c3ccccc3Cl)C2)OC1=O (configuration not stated) | – | 19.2 µM | – | 9.03 µM | – | 21.1 µM | – | 12.6 µM | – | 21.2 µM | – | 4.27 µM | – | 8.41 µM | – | 3.17 µM | – | 8.56 µM | – | > 25.3 µM |
| Cc1c(-c2ccc(C3CCCCC3)cc2)nc2ccc(F)cc2c1C(=O)O | 0.0881 µM | > 100 µM | > 76.2 µM | > 100 µM | – | > 100 µM | 0.0461 µM | > 100 µM | 0.128 µM | > 100 µM | 0.0701 µM | > 70 µM | 12.2 µM | > 100 µM | 0.0508 µM | > 100 µM | 38 µM | > 100 µM | 0.0574 µM | > 100 µM |
| CCCc1n(Cc2ccc3ccccc3c2)cc[n+]1Cc1ccc2ccccc2c1 | 1.44 µM | 3.34 µM | 1.28 µM | 2.7 µM | 1.26 µM | 2.8 µM | 1.22 µM | 3.01 µM | 2.67 µM | 12.1 µM | 1.1 µM | 2.85 µM | 0.514 µM | 3.04 µM | 0.971 µM | 2.17 µM | 0.398 µM | 1.61 µM | 0.414 µM | 1.75 µM |
| CN(C)CCCN(CCC1CCCCC1)CCC1CCCCC1 | 1.95 µM | 4.51 µM | 2.5 µM | 8.92 µM | 6.06 µM | 16.3 µM | 1.79 µM | 3.45 µM | 2.69 µM | 8.5 µM | 1.68 µM | 3.16 µM | 1.8 µM | 6.5 µM | 1.57 µM | 3.64 µM | 7.41 µM | 27.7 µM | 0.591 µM | – |
| CO[C@H]1C=CO[C@@]2(C)Oc3c(C)c(O)c4c(O)c(c(CN5CCN(C)CC5)c(O)c4c3C2=O)NC(=O)/C(C)=C\C=C[C@H](C)[C@H](O)C(C)[C@@H](O)C(C)[C@H](OC(C)=O)[C@@H]1C (some centres not stated) | – | > 100 µM | – | > 100 µM | – | > 100 µM | – | > 100 µM | – | > 100 µM | – | > 68.5 µM | – | > 100 µM | – | 35.9 µM | – | > 100 µM | – | > 100 µM |
| O=C(/C=C/c1ccc(Cl)cc1)c1ccccc(=O)c1O | – | 16.3 µM | – | 19.1 µM | – | 21.1 µM | – | 3.04 µM | – | > 39.2 µM | – | 17.5 µM | – | 12.3 µM | – | 10.4 µM | – | 17.9 µM | – | 12.1 µM |
| Cc1ccc(Nc2nccc(N(C)c3ccc4c(C)n(C)nc4c3)n2)cc1S(N)(=O)=O | 3.57 µM and 2.78 µM and 9.92 µM | > 100 µM | 2.05 µM and 9.87 µM | > 10 µM and 77.3 µM | 8.64 µM and 1.51 µM and 11.7 µM | > 100 µM and > 10 µM and 42.5 µM | 4.48 µM and 2.76 µM and 6.34 µM | > 100 µM | 4.63 µM and 3.58 µM and 10 µM | > 100 µM | 0.589 µM and 1.5 µM | – | 2.39 µM and 1.03 µM and 5.83 µM | – | 3.49 µM and 1.7 µM and 5.44 µM | > 100 µM | 3.43 µM and 0.681 µM and 4.42 µM | > 100 µM | 3.05 µM and 0.454 µM and 4.21 µM | > 100 µM |
| O=c1oc2ccc(I)cc2c(=O)n1-c1ccc(F)cc1F | 1.87 µM | 3.74 µM | 4.43 µM | 10.6 µM | 2.16 µM | 6.09 µM | 2.8 µM | 12.8 µM | 2.93 µM | 19.8 µM | 2.79 µM | 9.51 µM | 1.26 µM | 3.96 µM | 2.14 µM | 5.2 µM | 2.07 µM | 8.97 µM | 2.56 µM | > 100 µM |
| CC(=O)O[C@H]([C@H](OC(C)=O)[C@H](C)OC(C)=O)[C@@H](/C=C/[C@@H]1CC=CC(=O)O1)OC(C)=O | 15.8 µM | 45.9 µM | > 100 µM | > 100 µM | 57.6 µM | > 100 µM | 42 µM | > 100 µM | > 100 µM | > 100 µM | 34.5 µM | 92.7 µM | 30.2 µM | 69.6 µM | 33.4 µM | > 100 µM | 45.3 µM | > 100 µM | > 100 µM | > 100 µM |
| CC(CC(=O)N1C(=O)C(C)(C)[C@@H](O)[C@H]1CC(C)C(Cl)(Cl)Cl)C(Cl)(Cl)Cl (some centres not stated) | – | > 100 µM | – | > 100 µM | – | > 100 µM | – | > 100 µM | – | > 100 µM | – | > 100 µM | – | > 100 µM | – | > 100 µM | – | > 100 µM | – | > 100 µM |
| CSCS(=O)C[C@H](CO)NC(=O)/C=C/c1c(C)[nH]c(=O)[nH]c1=O (some centres not stated) | 0.406 µM | 2.64 µM and 2.37 µM | – | > 29.5 µM | 1.57 µM | 4.92 µM and 3.67 µM | 1.19 µM | > 27.6 µM and 7.55 µM | 1.99 µM | 8.93 µM and 5.64 µM | 1.2 µM | 4.1 µM and 2.66 µM | 1.14 µM | 4.15 µM and 1.03 µM | 3.16 µM | – | 0.296 µM | 1.07 µM and 0.994 µM | 1.72 µM | 8.83 µM and 5.01 µM |
| COc1ccc(C=Nc2c(C(=O)Nc3cccc(Cl)c3C)sc3nc(C)c(C(=O)/C=C/c4ccc(OC)cc4)cc23)cc1 | 0.362 µM | 8.43 µM | 4.12 µM | > 50 µM | 1.05 µM | > 27.5 µM | 1.93 µM | > 29.7 µM | 1.61 µM | > 50 µM | 0.449 µM | 2.41 µM | 0.191 µM | 1.88 µM | 0.362 µM | > 50 µM | – | > 50 µM | 0.259 µM | > 50 µM |
| O=C1C(=C(C(F)(F)Cl)C(F)(F)Cl)C2CCC1C2 (configuration not stated) | – | > 10 µM | – | 4.29 µM | – | > 10 µM | – | > 7.96 µM | – | > 10 µM | – | > 6.2 µM | – | > 10 µM | – | 3.61 µM | – | 8.31 µM | – | > 10 µM |
| CC(=O)OC1CCC2(C)C(CCC3C2CC(=O)C2(C)C3CC(N3CC3)C2C(C)=O)C1 (configuration not stated) | – | 51 µM | – | 45.3 µM | – | > 100 µM | – | 33.9 µM | – | > 100 µM | – | 37.3 µM | – | 42.6 µM | – | > 100 µM | – | > 100 µM | – | 89.7 µM |
